Values of other authors as cited in patent US20020010148A1, “Oral combinations of hydroxocobalamin and folic acid” (priority 1999, published 2002).

Legend:
[1] = system: homocysteine levels; settings: 0.4 mg hydroxocobalamin alone or with 0.5 mg/day or 5 mg/day folic acid, oral
[2] = system: vitamin B12 deficiency; settings: oral 1-2 mg/day; patients with pernicious anaemia
[3] = oral doses of 1 mg or more; without intrinsic factor; dose-dependent

Compound | contribution to lowering of homocysteine levels [1] | also measured
Nc1nc2ncc(CNc3ccc(C(=O)N[C@@H](CCC(=O)O)C(=O)O)cc3)nc2c(=O)[nH]1 [folic acid] | main effect | –
C/C1=C2/[N-][C@H]([C@H](CC(N)=O)[C@@]2(C)CCC(=O)NC[C@@H](C)OP(=O)([O-])O[C@H]2[C@@H](O)[C@@H](n3cnc4cc(C)c(C)cc43)O[C@@H]2CO)[C@]2(C)N=C(/C(C)=C3N=C(/C=C4N=C1[C@@H](CCC(N)=O)C\4(C)C)[C@@H](CCC(N)=O)[C@]\3(C)CC(N)=O)[C@@H](CCC(N)=O)[C@]2(C)CC(N)=O.[Co+3].[OH-] [hydroxocobalamin] | contributed little | –
cyanocobalamin | – | adequacy of oral dosing to provide vitamin B12 [2]: fully adequate
Vitamin B12 | – | passive absorption, share of the oral dose [3]: 1-2%
